Tests used:
HCC827 cells = assay: Multi-caspase assay, HCC827; format: cell-based, human; set-up: Caspase+ cells / Total Caspase+ cells / dead cells (multi-caspase assay) / Live cells (multi-caspase assay): unit not given here; conditions: for cells with activated caspases: 48 h, background 6.52 %
Description: (§1) HaCaT cells were grown in DMEM, whereas HCC827 and HCC827GR cells were grown in RPMI 1640. All culture media were supplemented with FBS (10 %) and P/S (1 %), and the cells were grown at 37 °C in 5 % CO2.

Bad = assay: Immunoblot Bad in HCC827 and HCC827GR cells; format: cell-based, human; conditions: HCC827; for Bad protein/actin: DBG 0 nM 0.16; for Bad protein Ratio: relative to DBG 12 nM = 1.00, DBG 0 nM 0.19
Description: as §1
Cells were lysed in RIPA buffer, and protein concentration was determined using a Bio-Rad DC Protein Assay kit (Bio-Rad, Hercules, CA, USA). Protein samples from the cell lysates were resolved by sodium dodecyl sulfate-polyacrylamide gel electrophoresis and then transferred onto polyvinylidene fluoride membranes. The membranes were blocked with 3 % or 5 % skim milk and then incubated at 4 °C overnight with the indicated primary antibodies, followed by the corresponding horseradish peroxidase-conjugated secondary antibodies at RT for 2 h. Protein bands were visualized using western blotting luminol reagent solution and ImageQuant LAS 500 (GE Healthcare, Uppsala, Sweden). The density of the bands was quantified using ImageJ software (NIH, Bethesda, MD, USA).

[1] = HCC827, DBG 3 nM, mean of samples 1-3
[2] = HCC827, DBG 6 nM, mean of samples 1-3
[3] = HCC827, DBG 12 nM, mean of samples 1-3

## COc1ccc(C[C@H]2C(=O)N[C@@H](C)C(=O)N(C)[C@H]3Cc4ccc(cc4)Oc4cc(ccc4O[C@@H]4O[C@H](CO)[C@@H](O)[C@H](O)[C@H]4O)C[C@@H](C(=O)N[C@H](C)C(=O)N[C@@H](C)C(=O)N2C)N(C)C3=O)cc1 [DBG, deoxybouvardin glucoside]
HCC827 cells; DBG 3 nM
  cells with activated caspases: 16.23%
HCC827 cells; DBG 6 nM
  cells with activated caspases: 24.10%
HCC827 cells; DBG 12 nM
  cells with activated caspases: 25.94%
HCC827 cells; [1]
  Caspase+ cells: 4.43
  Caspase+/dead cells: 11.80
  Live cells (multi-caspase assay): 83.72
  Total Caspase+ cells: 16.23
  dead cells (multi-caspase assay): 0.05
HCC827 cells; HCC827, DBG 3 nM, sample 1
  Caspase+ cells: 5.19
  Caspase+/dead cells: 10.83
  Live cells (multi-caspase assay): 83.88
  Total Caspase+ cells: 16.02
  dead cells (multi-caspase assay): 0.10
HCC827 cells; HCC827, DBG 3 nM, sample 2
  Caspase+ cells: 3.91
  Caspase+/dead cells: 12.71
  Live cells (multi-caspase assay): 83.38
  Total Caspase+ cells: 16.62
  dead cells (multi-caspase assay): 0.00
HCC827 cells; HCC827, DBG 3 nM, sample 3
  Caspase+ cells: 4.20
  Caspase+/dead cells: 11.85
  Live cells (multi-caspase assay): 83.89
  Total Caspase+ cells: 16.06
  dead cells (multi-caspase assay): 0.05
HCC827 cells; [2]
  Caspase+ cells: 9.84
  Caspase+/dead cells: 14.26
  Live cells (multi-caspase assay): 75.85
  Total Caspase+ cells: 24.10
  dead cells (multi-caspase assay): 0.00
HCC827 cells; HCC827, DBG 6 nM, sample 1
  Caspase+ cells: 10.64
  Caspase+/dead cells: 13.33
  Live cells (multi-caspase assay): 76.03
  Total Caspase+ cells: 23.97
  dead cells (multi-caspase assay): 0.00
HCC827 cells; HCC827, DBG 6 nM, sample 2
  Caspase+ cells: 9.67
  Caspase+/dead cells: 14.53
  Live cells (multi-caspase assay): 75.65
  Total Caspase+ cells: 24.20
  dead cells (multi-caspase assay): 0.00
HCC827 cells; HCC827, DBG 6 nM, sample 3
  Caspase+ cells: 9.21
  Caspase+/dead cells: 14.92
  Live cells (multi-caspase assay): 75.87
  Total Caspase+ cells: 24.13
  dead cells (multi-caspase assay): 0.00
HCC827 cells; [3]
  Caspase+ cells: 16.76
  Caspase+/dead cells: 9.18
  Live cells (multi-caspase assay): 73.91
  Total Caspase+ cells: 25.94
  dead cells (multi-caspase assay): 0.08
HCC827 cells; HCC827, DBG 12 nM, sample 1
  Caspase+ cells: 17.38
  Caspase+/dead cells: 9.37
  Live cells (multi-caspase assay): 73.00
  Total Caspase+ cells: 26.75
  dead cells (multi-caspase assay): 0.05
HCC827 cells; HCC827, DBG 12 nM, sample 2
  Caspase+ cells: 16.62
  Caspase+/dead cells: 9.35
  Live cells (multi-caspase assay): 73.88
  Total Caspase+ cells: 25.97
  dead cells (multi-caspase assay): 0.15
HCC827 cells; HCC827, DBG 12 nM, sample 3
  Caspase+ cells: 16.27
  Caspase+/dead cells: 8.82
  Live cells (multi-caspase assay): 74.86
  Total Caspase+ cells: 25.09
  dead cells (multi-caspase assay): 0.05
Bad; DBG 3 nM
  Bad protein/actin: 0.25
  Bad protein Ratio: 0.31
Bad; DBG 6 nM
  Bad protein/actin: 0.69
  Bad protein Ratio: 0.84
